Drawing on US8586602B2, “Derivatives of 7 alkynyl-1,8 naphthyridones, preparation method thereof and use of same in therapeutics” (Sanofi, priority 2007, dated 2013), this text covers IC50 and melting point for six compounds.

Several values for one entry are separate records, joined by “and”; a condition that tells them apart may be missing. Identical values can stand only once. Counter-ions that a name gives are not always drawn.

The target in the first data set is T1, VEGFR-3-TK (Homo sapiens, UniProt P35916).
T1 construct: purchased Cell Signaling 7790
T1 sequence (P35916 800-1297 limits assumed): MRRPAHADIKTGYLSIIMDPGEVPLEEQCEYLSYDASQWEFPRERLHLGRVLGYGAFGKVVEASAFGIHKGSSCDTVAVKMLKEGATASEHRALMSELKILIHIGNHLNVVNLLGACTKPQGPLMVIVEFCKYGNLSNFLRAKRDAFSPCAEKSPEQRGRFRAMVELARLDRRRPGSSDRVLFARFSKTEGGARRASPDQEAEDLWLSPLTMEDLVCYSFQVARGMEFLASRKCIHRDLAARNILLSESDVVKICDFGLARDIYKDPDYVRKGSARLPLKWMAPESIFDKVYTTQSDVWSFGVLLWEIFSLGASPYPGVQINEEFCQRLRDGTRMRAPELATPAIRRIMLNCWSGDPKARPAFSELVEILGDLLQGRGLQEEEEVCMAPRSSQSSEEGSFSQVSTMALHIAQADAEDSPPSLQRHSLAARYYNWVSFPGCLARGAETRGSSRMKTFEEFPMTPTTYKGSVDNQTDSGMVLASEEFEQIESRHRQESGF
Put plainly: Measurement of the tyrosine kinase activity of VEGFR-3 by ELISA (phosphorylation of poly Glu-Tyr). The format is biochemical. Conditions: VEGFR-3 ELISA, poly Glu-Tyr substrate, 30 μM ATP, 30 min at ambient temperature; read-out: IC50 (concentration which decreases the total activity of the enzyme by 50%). As to the method: The compounds according to the invention have formed the subject of pharmacological assays which make it possible to determine their inhibitory effect on the VEGFR-3 enzyme.
Measurement of the Tyrosine Kinase Activity of VEGFR-3 by ELISA
The effect of the products is quantified by the concentration which decreases the total activity of the enzyme by 50% (IC50). For the determination of the IC50 values, the product is diluted in DMSO with a concentration range which extends from 3 to 1000 nM. The day before the manipulation, 125 μl of the poly Glu-Tyr substrate (250 μg/ml in 1×PBS without Ca^2+ or Mg^2+ or sodium bicarbonate) are deposited in each well of an ELISA plate (for example, an ELISA plate of the SIGMA Protein Tyrosine Kinase Assay kit, Ref. PTK-101). The plate is subsequently covered with an adhesive film and incubated overnight at 37° C. The following day, the wells are emptied by turning the plate over, washed by adding 300 μl of buffer solution (PBS+0.05% Tween 20) and dried by further incubation of the plate for 2 h at 37° C. A 90 μl reaction mixture is deposited onto each well. This mixture comprises the 1× kinase buffer to which 30 μM of ATP and the inhibitor at the desired concentration have been added. […]
In general terms: In an ELISA, binding on a coated surface is turned into a signal by an enzyme label.
As to `CCn1c(N)c(C(=O)NC)c(=O)c2ccc(C#CC(C)(C)N)nc21` [Compound 4, 2-Amino-7-(3-amino-3-methylbut-1-yn-1-yl)-1-ethyl-N-methyl-4-oxo-1,4-dihydro-1,8-naphthyridine-3-carboxamide hydrochloride], the IC50 was determined as 451 nM. `CCn1c(N)c(C(=O)NC)c(=O)c2ccc(C#CCOC)nc21` [Compound 5, 2-amino-1-ethyl-7-(3-methoxyprop-1-yn-1-yl)-N-methyl-4-oxo-1,4-dihydro-1,8-naphthyridine-3-carboxamide]: the IC50 came to 343 nM.

Test system in a further data set: not given
Test: not given
Details: not given
In general, melting point refers to the temperature, or range, at which the solid turns liquid. Compound `CCn1c(N)c(C(=O)NC)c(=O)c2ccc(C#CC(C)(C)OCC(N)=O)nc21` [Compound 6, 2-Amino-7-[3-(2-amino-2-oxoethoxy)-3-methylbut-1-yn-1-yl]-1-ethyl-N-methyl-4-oxo-1,4-dihydro-1,8-naphthyridine-3-carboxamide] displayed a melting point of 204 °C. For the compound `CCn1c(N)c(C(=O)NC)c(=O)c2ccc(C#CCNC(=O)OC)nc21` [Compound 2, Methyl {3-[7-amino-8-ethyl-6-(methylcarbamoyl)-5-oxo-5,8-dihydro-1,8-naphthyridin-2-yl]prop-2-yn-1-yl}carbamate], the melting point is 255 °C and 250 °C. Compound `CCn1c(N)c(C(=O)NC)c(=O)c2ccc(C#CC(C)(COC)OC)nc21` (racemic) [Compound 1, (±)-2-Amino-7-(3,4-dimethoxy-3-methylbut-1-yn-1-yl)-1-ethyl-N-methyl-4-oxo-1,4-dihydro-1,8-naphthyridine-3-carboxamide] gave a melting point of 185 to 187 °C. `CCn1c(N)c(C(=O)NC)c(=O)c2ccc(C#CC(C)(C)N)nc21` (as salt: hydrochloride) [Compound 4, 2-Amino-7-(3-amino-3-methylbut-1-yn-1-yl)-1-ethyl-N-methyl-4-oxo-1,4-dihydro-1,8-naphthyridine-3-carboxamide hydrochloride] showed a melting point of 293 °C. In turn, `CCn1c(N)c(C(=O)NC)c(=O)c2ccc(C#CCOC)nc21` [Compound 5, 2-amino-1-ethyl-7-(3-methoxyprop-1-yn-1-yl)-N-methyl-4-oxo-1,4-dihydro-1,8-naphthyridine-3-carboxamide] had a melting point of 233 °C.
